Test results reported in publication PMC9965625, “Endocannabinoid 2-Arachidonoylglycerol Synthesis and Metabolism at Neuronal Nuclear Matrix Fractions Derived from Adult Rat Brain Cortex” (International Journal of Molecular Sciences, 2023).

Target: T1, α/β-hydrolase domain 12 protein (ABHD12) (Rattus norvegicus, UniProt Q6AYT7)
T1 construct: native enzyme in nuclear matrix fraction of adult rat brain cortex
T1 sequence (Q6AYT7 1-398): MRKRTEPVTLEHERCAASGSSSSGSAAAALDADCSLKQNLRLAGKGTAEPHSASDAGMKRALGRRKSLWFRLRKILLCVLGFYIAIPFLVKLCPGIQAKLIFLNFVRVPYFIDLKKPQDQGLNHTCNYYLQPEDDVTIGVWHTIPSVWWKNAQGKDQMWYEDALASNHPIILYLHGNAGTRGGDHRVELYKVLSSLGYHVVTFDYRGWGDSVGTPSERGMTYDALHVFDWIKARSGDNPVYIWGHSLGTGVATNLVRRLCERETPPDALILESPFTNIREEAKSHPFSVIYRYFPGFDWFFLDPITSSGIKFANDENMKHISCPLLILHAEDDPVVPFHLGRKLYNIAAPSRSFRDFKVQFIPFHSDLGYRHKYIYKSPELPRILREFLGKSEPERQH
Test: LC/MS/MS of arachidonic acid formed from […] exogenous 2-AG in nuclear matrix fraction, blocked by MAFP
Assay type: cell-based

Compound: CCCCC/C=C\C/C=C\C/C=C\C/C=C\CCCC(=O)OC(CO)CO [2-AG]
- LC/MS/MS of arachidonic acid formed from 10 μM exogenous 2-AG in nuclear matrix: ABHD12 is the main responsible for the hydrolysis of 2-AG in the nuclear matrix
